Test results: patent US9109041B2, “Analog compounds of analgesic peptides derived from the venom of crotalus durissus terrificus snakes, their uses, compositions, methods of preparation and purification” (priority 2004, dated 2015)

Legend:
[1] = system: allodynia induced by the Walker 256 tumor; assay: allodynia induced by the Walker 256 tumor (cancer pain); type: in vivo, rat; details: saline + antagonist alone i.pl. (ICI 10, nor-BNI 50, CTOP 20 μg/paw); for paw withdrawal threshold (allodynia), FM / paw withdrawal threshold (allodynia), IM: 5th day; for paw withdrawal threshold (allodynia), FM: 2 hours after treatment; for paw withdrawal threshold (allodynia), IM: before treatment; for paw withdrawal threshold (allodynia), BM: before injection of the tumor
Excerpt: (§1) The Walker 256 tumor cells were kindly provided by Prof. Dr. Rui Curi, of the Physiology and Biophysics Department of the Biomedical Science Institute of the University of São Paulo. The tumor-bearing animal was sacrificed and the tumoral tissue was removed, placed on a Petri dish containing 0.9% saline. Then, the tumor was cut in smaller parts, and transferred into a beaker containing saline. The material was triturated with a fine-cut, until the tumor is totally fragmented. Then, this material was filtered in gauze and the liquid collected in a beaker. All procedures were performed on ice. The material of the beaker was transferred to 50 ml plastic tubes and centrifuged at 4° C., for 10 minutes, at 1200 rpm. After centrifugation, the supernatant was rejected and the precipitate resuspended in saline 0.9%. For cell counts, the suspension of cells was diluted (1:100) in saline. An aliquot (200 μl) was removed and placed in a test tube containing 200 μl of 1% Trypan blue. The cell number was determined in optical microscope using Neubauer's chamber. The cellular viability was determined considering viable the light-refracting cells.
(§2) After determining the number of cells, 1 ml of the suspension, containing 1×10^7 cells, was injected by intraperitoneal route, on the right side of the rats to obtain liquid tumor (ascites).
(§3) Five days after injection, the rats with ascites were sacrificed and the ascetic fluid collected from the peritoneal cavity and placed in a test tube containing EDTA. The liquid was diluted 100 times with phosphate-buffered saline (PBS), pH 7.4. The cell count was done after dilution with Trypan blue, as described above. Tumor cell count was ascertained to 1×10^6 cells in 100 μl, by dilution with PBS. This number of cells was determined in preliminary tests for induction of cancer pain in rats. In this final cell number adjustment, the volume of antibiotic (Benzetacil®) added to the suspension (150,000 units of antibiotic/10 ml of suspension), was taken into consideration. The antibiotic was used in order to avoid microbial contamination. The cells were injected by intraplantar route into one of the rat hind paws. Control animals were injected with PBS into the contralateral paw, in the same experimental conditions.
(§4) Hyperalgesia, allodynia and spontaneous pain were determined before (BM-basal measurement) and 5 days after tumor cell injection, before (IM-initial measurement) and 2 hours after (FM-Final measurement) peptide administration.
(§5) The results were analyzed comparing the mean values of the basal and initial measurements, or of the initial and final measurements or, when determined, by comparing the mean values obtained in the different experimental groups (Tables 17, 18, 19).
(§6) For this purpose, the animals were treated with CTOP, a specific μ receptor antagonist (20 μg/paw), nor-BNI, a specific κ receptor antagonist (50 μg/paw) or with ICI 174,864, a specific δ receptor antagonist (10 μg/paw). The antagonists were injected by intraplantar route. The peptide was administered in the dose of 6 μg/kg, orally, immediately before the injection of the opioid antagonists. The results were analyzed comparing the mean values of the basal and initial measurements, or of the initial and final measurements or, when determined, by comparing the mean values obtained in the different experimental groups ( Table 20).

[2] = system: hyperalgesia induced by the Walker 256 tumor; assay: hyperalgesia induced by the Walker 256 tumor (cancer pain); type: in vivo, rat; details: saline + antagonist alone i.pl. (ICI 10, nor-BNI 50, CTOP 20 μg/paw); for pain threshold, FM / pain threshold, IM: 5th day; for pain threshold, FM: 2 hours after treatment; for pain threshold, IM: before treatment; for pain threshold, BM: before injection of the tumor
Excerpt: as §1, §2, §3, §4, §5, §6

[3] = system: carrageenin-induced hyperalgesia; assay: rat paw pressure test, carrageenin-induced hyperalgesia; type: in vivo; details: for pain threshold, IM (g) ± S.E.M.: saline + antagonist alone i.pl. (CTOP 20, nor-BNI 50, ICI 174.864 10 μg/paw), before carrageenin; for pain threshold, FM (g) ± S.E.M: saline + antagonist alone i.pl. with carrageenin (CTOP 20, nor-BNI 50, ICI 174.864 10 μg/paw), after carrageenin
Method: The antinociceptive effect of the synthetic peptide was evaluated in the inflammatory hyperalgesia induced by carrageenin. […] Saline, administered by the same route was used as control.
As determined in the PGE2 model, the participation of opioid receptors in the antinociceptive effect of the peptide SEQ ID NO: 2 in the carrageenin-induced hyperalgesia (Table 10) was investigated. Therefore, the animals were treated with CTOP, a specific μ receptor antagonist (20 μg/paw), nor-BNI, a specific κ receptor antagonist (50 μg/paw) or with ICI 174.864, a specific δ receptor antagonist (10 μg/paw), injected by i.pl. route concomitantly to carrageenin. Peptide was administered in the dose of 1 μg/kg, orally, immediately before carrageenin.

Compound | paw withdrawal threshold (allodynia), FM [1] | paw withdrawal threshold (allodynia), IM [1] | paw withdrawal threshold (allodynia), BM [1] | pain threshold, FM [2] | pain threshold, IM [2] | pain threshold, BM [2] | pain threshold, IM (g) ± S.E.M. [3] | pain threshold, FM (g) ± S.E.M [3]
Oc1ccc2c3c1O[C@H]1c4[nH]c5c(c4C[C@@]4(O)[C@@H](C2)N(CC2CC2)CC[C@]314)C[C@@]1(O)[C@H]2Cc3ccc(O)c4c3[C@@]1(CCN2CC1CC1)[C@H]5O4 [nor-BNI, nor-Binalthorphimine, reference compound] | 4.41 ± 0.00 log 10 (mg × 10) | 4.41 ± 0.00 log 10 (mg × 10) | 4.97 ± 0.00 log 10 (mg × 10) | 32 ± 1.66 g | 33 ± 3.33 g | 70 ± 2.88 g | 72 ± 1.12 g | 52 ± 2.79 g
CTOP [reference compound] | 4.41 ± 0.00 log 10 (mg × 10) | 4.41 ± 0.00 log 10 (mg × 10) | 4.97 ± 0.00 log 10 (mg × 10) | 32 ± 1.66 g | 35 ± 2.88 g | 68 ± 1.66 g | 73 ± 1.25 g | 49 ± 1.25 g
